Experiment [1] deals with stomata (stomatal aperture). The experiment is described as follows: Stomatal aperture of intact leaves immersed in artificial apoplastic sap, measured on epidermal imprints. The class given is cell-based, tomato (Solanum lycopersicum cv. MP-1). Conditions: 3 h. How it is done:
Stomatal aperture and density are determined using the rapid imprinting technique described by […] and Sack (2002). This approach allows to reliably score hundreds of stomata from each experiment, each of which is sampled at the same time. Light-bodied vinylpolysiloxane dental resin (Heraeus-Kulzer, Hanau, Germany) is attached to the abaxial leaf side and then removed as soon as it dries (1 min). The resin epidermal imprints are than covered with nail polish, which removed once it had dried out and serves as a mirror image of the resin imprint. The nail-polish imprints are put on glass cover slips and photographed under bright-field microscope. Stomata images are later analyzed to determine aperture size using the ImageJ software (World Wide Web (dot) rsb (dot) info (dot) nih (dot) gov/ij/) fit-ellipse tool or any other software that can process and analyze images. A microscopic ruler is used for the size calibration. Additional information can be obtained from the software such as stomata width, length, area, perimeter etc. To assess stomatal responses, leaflets are cut and immediately immerse in artificial xylem sap solution (AXS) (Wilkinson and Davies, 1997) containing 100 mM sucrose (Duchefa Biochemie) with or without 20 mM N-acetyl glucosamine (NAG, Sigma-Aldrich), 100 mM or 200 mM glucose (Duchefa Biochemie), 100 mM or 200 mM fructose (Sigma-Aldrich), 100 mM 2-deoxyglucose (Sigma-Aldrich), 10 mM or 100 mM mannose (Sigma-Aldrich), 100 mM sorbitol (Sigma-Aldrich) or 100 mM or 200 mM mannitol (Duchefa Biochemie). The sorbitol and mannitol treatments serve as non-metabolic osmotic controls. Imprints are taken 3 h after immersion and stomatal aperture is analyzed. Different plant species can be used as well as, AXS solutions, treatment solutions and different timings to our decision.

Experiment [2] deals with guard cells. The experiment is described as follows: Nitric oxide production in guard cells of epidermal peels (DAF-2DA fluorescence). Type of experiment: cell-based, tomato. The following applies: for NO production and stomatal closure in ABA-deficient mutant: Sitiens epidermal peels, 100 mM Suc or 100 μM ABA; for effect on NO levels in guard cells: 100 mM sorbitol or 20 mM NAG with 100 mM Suc. Here is the method: Detection of nitric oxide (NO) levels in stomata is performed as follows: Epidermal peels are prepared and incubated in MES buffer [25 mM MES-KOH, pH=6.15 and 10 mM KCl (MES, 2-(N-morpholino)-ethane sulfonic acid; Sigma-Aldrich] with or without 20 mM NAG, for 2.5 h under steady light, and then loaded with 60 μM NO indicator dye, DAF-2DA (4, 5-diaminofluorescein diacetate; Sigma-Aldrich), diluted in MES buffer with or without 20 mM N-acetyl glucosamine (NAG, Sigma-Aldrich) and left for an additional 50 min. Then, the peels are washed with MES 3 times and re-incubated for 30 min in the buffer (control, set as 100% fluorescence) or in 100 mM sorbitol, 100 mM sucrose and 20 mM NAG. The peels are then photographed under a microscope (see Materials and Methods, “Confocal microscopy imaging”). Three to four biological repeats containing 20-30 stomata each are included in each experiment and each experiment is repeated several times. Images are analyzed using the ImageJ software histogram tool to evaluate fluorescence intensity and the fit-ellipse tool to determine stomatal aperture. It is possible to use epidermal strips from different species, use different treatments solutions and different timings, all to our decision. Images are acquired using the OLYMPUS IX 81 (Japan) inverted laser scanning confocal microscope (FLUOVIEW 500) equipped with a 488-nm argon ion laser and a 60X1.0 NA PlanApo water immersion objective. Nitric oxide- DAF-2DA (4, 5-diaminofluorescein diacetate; Sigma-Aldrich) fluorescence is excited by 488-nm light and the emission is collected using a BA 505-525 filter. GFP is excited by 488-nm light and the emission is collected using a BA 505-525 filter. A BA 660 IF emission filter is used to observe chlorophyll autofluorescence. Confocal optical sections are obtained at 0.5-μm increments. The images are color-coded green for GFP and magenta for chlorophyll autofluorescence.

For `O=CC[C@@H](O)[C@H](O)[C@H](O)CO` [2-dG, 2-deoxyglucose], the “effect on stomatal aperture” value in experiment [1] (WT leaves, vs mannitol osmotic control) was “reduced stomatal aperture”.
As for `CC1=CC(=O)CC(C)(C)[C@@]1(O)/C=C/C(C)=C\C(=O)O` [ABA, abscisic acid], the “NO production and stomatal closure in ABA-deficient mutant” value in experiment [2] (30 min) is on record as “did trigger the production of NO”.
With `CC(=O)N[C@H]1C(O)O[C@H](CO)[C@@H](O)[C@@H]1O` (stereo partly drawn) [NAG, N-acetyl glucosamine], the “effect on Suc-induced stomatal closure of AtHXK1-expressing plants” value in experiment [1] (HK4 leaves, 100 mM Suc with 20 mM NAG) is listed as “abolished the closing effect of Suc”. Further, in experiment [1] (WT leaves, 100 mM Suc with 20 mM NAG), the “effect on Suc-induced stomatal closure” value was “almost completely abolished the effect of Suc and prevented stomatal closure”. Besides, the “time to resumption of NO production after washing out NAG” value in experiment [2] (NAG washed out with 100 mM Suc) is given as “less than 30 min”. In addition, the “effect on NO levels in guard cells” value in experiment [2] (WT epidermal peels, 30 min) is given as “prevented the production of NO”.
For `OC[C@H]1O[C@@](CO)(O[C@H]2O[C@H](CO)[C@@H](O)[C@H](O)[C@H]2O)[C@@H](O)[C@@H]1O` [Suc, sucrose], the “effect on stomatal aperture of AtHXK1-expressing plants” value in experiment [1] (HK4 leaves, 100 mM Suc) is reported as “caused the stomata to close even further”. Also, the “decrease of stomatal aperture size relative to sorbitol” value in experiment [1] (WT tomato leaflets, 100 mM Suc vs 100 mM sorbitol) worked out at 29%. Moreover, the “effect on guard-cell fluorescence of AtHXK1-expressing line” value in experiment [2] (HK4 epidermal peels, Suc added) is reported as “even more intense fluorescence”. Also, the “NO production and stomatal closure in ABA-deficient mutant” value in experiment [2] (30 min) was “did not result in any increase in fluorescence or stomatal closure”. In addition, the “increase in guard-cell fluorescence (NO levels)” value in experiment [2] (WT epidermal peels, 100 mM, 30 min) stood at 3.5 fold.
Take `OC[C@@H](O)[C@@H](O)[C@H](O)[C@@H](O)CO` [sorbitol]: in experiment [2] (WT epidermal peels, 30 min), the “effect on NO levels in guard cells” value is reported as “had no effect on NO levels”.

Source of the values: patent publication US10975385B2, “Methods of modulating stomata conductance and plant expression constructs for executing same” (The State of Israel, Ministry of Agriculture & Rural …, priority 2011, dated 2021).
